Source: paper PMC6449286, “Influence of Multidrug Resistance-Associated Proteins on the Excretion of the ABCC1 Imaging Probe 6-Bromo-7-[^11C]Methylpurine in Mice” (Molecular Imaging and Biology, 2018)
Marks after values point to notes of the source that are not given here. Values belong to the compound of their own block, whether it stands above or below them.

Legend:
[1] = set-up: method as in PMID 1976057; conditions: rats ref 24; cited from earlier work
[2] = Baseline 6-bromo-7-[^11C]methylpurine PET in vehicle-treated wild-type mice; format: in vivo
Protocol: (§1) Groups of wild-type, Abcc4^(−/−), Abcc1^(−/−), and Abcc1^(+/−) mice underwent a baseline PET scan with 6-bromo-7-[^11C]methylpurine at 30 min after i.p. injection of vehicle solution (PBS). […] In addition, groups of wild-type and Abcc1^(−/−) mice were used to determine the percentage of unchanged 6-bromo-7-[^11C]methylpurine in different tissues and fluids.
(§2) During all experimental procedures, animals were kept under isoflurane anesthesia. PET imaging was conducted on a microPET Focus220 scanner (Siemens Medical Solutions, Knoxville, TN, USA). […] Subsequently, 6-bromo-7-[^11C]methylpurine (29 ± 9 MBq in a volume of 0.1 ml, 0.17 ± 0.11 nmol) was administered as an i.v. bolus via the lateral tail vein, and a 90-min dynamic PET scan (energy window: 250–750 keV; timing window: 6 ns) was initiated at the start of radiotracer injection. […] Blood was centrifuged to obtain plasma and aliquots of blood and plasma were counted for radioactivity in a gamma counter (Wizard 1470; Perkin-Elmer, Waltham, MA, USA).
(§3) The PET data were sorted into 25 frames with a duration increasing from 5 s to 20 min. Fourier re-binning of the three-dimensional sinograms followed by a two-dimensional filtered back-projection with a ramp filter resulting in a voxel size of 0.4 × 0.4 × 0.796 mm^3 was used to reconstruct the PET data. Using AMIDE software, brain, right lung, left kidney, urinary bladder, liver, duodenum, intestine, and gall bladder were manually outlined on the PET images to derive concentration-time curves expressed in units of standardized uptake value (SUV = (radioactivity per g/injected radioactivity) × body weight). In addition, the left ventricle of the heart was outlined to obtain an image-derived blood curve. For all organs, the area under the concentration-time curve (AUC) from 0 to 90 min after radiotracer injection was calculated using Prism 7 software (GraphPad Software, La Jolla, CA, USA) and organ-to-blood AUC ratios were calculated. From the log-transformed concentration-time curves in blood, brain, lung, kidney, and liver, the elimination rate constant (kelimination) of radioactivity was determined by linear regression analysis from 17.5 to 80 min after radiotracer injection. A graphical analysis method (integration plot) was used to estimate the rate constant for transfer of radioactivity from blood into different organs (brain, kidney, and liver, kuptake, ml/min/g tissue) using data measured from 0.3 to 3.5 min after radiotracer injection, as described in detail before. Moreover, the rate constant for tubular secretion of radioactivity (kurine, min^−1) was determined from 12.5 to 65 min after radiotracer injection using integration plot analysis.

[3] = biological target: T1, Abcc1 (Mus musculus, UniProt O35379); set-up: method as in PMID 23596979, PMID 18985052; conditions: cited from earlier work
T1 construct: from tissue; host or cells: living C57BL/6J mice (wild-type versus Abcc1 knockout), obtained from the University of Oslo
T1 sequence (O35379 whole entry): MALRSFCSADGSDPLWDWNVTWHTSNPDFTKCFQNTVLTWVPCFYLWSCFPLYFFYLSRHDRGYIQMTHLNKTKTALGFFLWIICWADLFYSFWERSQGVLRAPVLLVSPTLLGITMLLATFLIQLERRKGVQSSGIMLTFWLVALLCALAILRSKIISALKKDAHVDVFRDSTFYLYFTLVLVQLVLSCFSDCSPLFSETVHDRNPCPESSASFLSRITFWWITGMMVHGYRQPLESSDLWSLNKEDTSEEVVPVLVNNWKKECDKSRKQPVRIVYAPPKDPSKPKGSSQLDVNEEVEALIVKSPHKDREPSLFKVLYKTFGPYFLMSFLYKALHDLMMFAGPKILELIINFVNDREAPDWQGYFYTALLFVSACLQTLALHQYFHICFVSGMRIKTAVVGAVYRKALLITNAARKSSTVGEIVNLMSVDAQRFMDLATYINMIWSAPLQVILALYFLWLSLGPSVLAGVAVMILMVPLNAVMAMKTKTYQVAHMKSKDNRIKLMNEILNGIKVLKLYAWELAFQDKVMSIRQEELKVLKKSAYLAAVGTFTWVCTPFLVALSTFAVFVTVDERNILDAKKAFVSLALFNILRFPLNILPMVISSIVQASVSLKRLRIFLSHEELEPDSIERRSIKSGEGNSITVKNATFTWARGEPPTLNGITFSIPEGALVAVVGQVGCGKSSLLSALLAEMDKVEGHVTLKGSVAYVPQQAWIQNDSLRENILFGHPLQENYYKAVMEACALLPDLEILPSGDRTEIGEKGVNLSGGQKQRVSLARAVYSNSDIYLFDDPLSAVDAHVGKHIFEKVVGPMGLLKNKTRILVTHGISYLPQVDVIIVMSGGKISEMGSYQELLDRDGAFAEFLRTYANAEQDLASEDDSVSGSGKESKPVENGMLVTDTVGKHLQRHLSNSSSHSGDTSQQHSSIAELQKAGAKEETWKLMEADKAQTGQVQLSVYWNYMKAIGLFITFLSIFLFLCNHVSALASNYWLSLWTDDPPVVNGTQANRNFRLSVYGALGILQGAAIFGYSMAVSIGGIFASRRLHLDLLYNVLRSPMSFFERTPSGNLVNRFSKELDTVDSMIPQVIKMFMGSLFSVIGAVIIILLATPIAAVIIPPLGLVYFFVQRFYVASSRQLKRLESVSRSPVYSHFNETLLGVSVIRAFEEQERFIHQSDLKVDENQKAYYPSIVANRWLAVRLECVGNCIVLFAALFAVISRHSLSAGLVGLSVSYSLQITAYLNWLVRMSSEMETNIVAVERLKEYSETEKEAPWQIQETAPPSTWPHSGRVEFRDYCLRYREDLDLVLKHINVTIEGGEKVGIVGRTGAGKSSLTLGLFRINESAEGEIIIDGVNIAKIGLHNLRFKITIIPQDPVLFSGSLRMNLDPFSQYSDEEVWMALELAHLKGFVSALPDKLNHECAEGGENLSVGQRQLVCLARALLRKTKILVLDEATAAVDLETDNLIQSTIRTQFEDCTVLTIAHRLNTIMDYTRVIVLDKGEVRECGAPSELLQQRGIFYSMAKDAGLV

[4] = system: Abcc4; experiment: 6-bromo-7-[^11C]methylpurine PET in Abcc4^(−/−) mice; format: in vivo; conditions: Abcc4^(−/−) vs wild-type mice
Protocol: as §1, §2
The PET data were sorted into 25 frames with a duration increasing from 5 s to 20 min. […] Using AMIDE software, brain, right lung, left kidney, urinary bladder, liver, duodenum, intestine, and gall bladder were manually outlined on the PET images to derive concentration-time curves expressed in units of standardized uptake value (SUV = (radioactivity per g/injected radioactivity) × body weight). […] From the log-transformed concentration-time curves in blood, brain, lung, kidney, and liver, the elimination rate constant (kelimination) of radioactivity was determined by linear regression analysis from 17.5 to 80 min after radiotracer injection. A graphical analysis method (integration plot) was used to estimate the rate constant for transfer of radioactivity from blood into different organs (brain, kidney, and liver, kuptake, ml/min/g tissue) using data measured from 0.3 to 3.5 min after radiotracer injection, as described in detail before. […]

[5] = Assessment of glutathione conjugation by radio-TLC in mouse tissues and fluids; conditions: for Percentage of S-(6-(7-[^11C]methylpurinyl))glutathione in bile / Percentage of S-(6-(7-[^11C]methylpurinyl))glutathione in brain / Percentage of S-(6-(7-[^11C]methylpurinyl))glutathione in kidney / Percentage of S-(6-(7-[^11C]methylpurinyl))glutathione in liver / Percentage of S-(6-(7-[^11C]methylpurinyl))glutathione in urine: 15 min after i.v. injection; for Percentage of S-(6-(7-[^11C]methylpurinyl))glutathione in plasma: 15 min after i.v. injection of 6-bromo-7-[^11C]methylpurine, n=3
Protocol: Assessment of Glutathione Conjugation
6-Bromo-7-[11C]methylpurine (26 ± 8 MBq in a volume of 0.1 ml, 0.15 ± 0.06 nmol) was administered i.v. to wild-type and Abcc1(-/-) mice (n = 3 per group) under isoflurane anesthesia.
After a period of 15 min, blood was collected from the retro-bulbar plexus and animals were euthanized. Brain, liver, kidneys, urine and bile were collected. Blood was centrifuged to obtain plasma and proteins were precipitated by the addition of acetonitrile (1 µl per µl plasma). Liver, kidneys and brain were homogenized using an Ultra Turrax T10 (IKA Laboratory Equipment, Staufen, Germany) and proteins were precipitated with acetonitrile (1 ml per liver, 0.2 ml per kidneys/brain). Urine and bile were diluted with acetonitrile (1 µl per µl urine and bile). All solutions were vortexed and then centrifuged (12,000 x g, 1 min, 21°C). Each supernatant (plasma, brain, liver, kidney, urine, bile, 5 µl each) and diluted radiotracer solution as reference were spotted on silica gel 60F 254 nm TLC plates (10 x 20 cm; Merck, Darmstadt, Germany) and plates were developed in water/acetonitrile/acetic acid (92/8/1, v/v/v). Detection was performed by placing the TLC plates on multisensitive phosphor screens (Perkin-Elmer). […]

[6] = biological target: T1, Abcc1; experiment: 6-bromo-7-[^11C]methylpurine PET in Abcc1 knockout mice; format: in vivo
Protocol: as §1, §2, §3

[7] = system: ABCC2; set-up: method as in PMID 12695538, PMID 10760098; conditions: in vitro ref 20, 21; read-out: IC50 for inhibition of substrate transport by ABCC2; cited from earlier work
[8] = MK571 concentrations in plasma and kidneys (HPLC); format: in vivo, mice; conditions: mouse, intraperitoneal, 300 mg/kg
Protocol: Assessment of Glutathione Conjugation […]
euthanized. Brain, liver, kidneys, urine and bile were collected. Blood was centrifuged to obtain […]
fluorescence detector (G1321 FLD). […]
obtain a clear supernatant. The resulting supernatants were injected into the HPLC column.
(5 µm, 100-4.6 mm) preceded by a Chromolith Performance RP-18 pre-column (5 µm, 10-4.6 mm), which was isocratically eluted with acetonitrile/methanol/0.1% aqueous acetic acid (30/20/50, v/v/v) at a flow rate of 2 ml/min. For fluorescence detection, an excitation wavelength of 250 nm and an emission wavelength of 410 nm were used. MK571 eluted with a retention time of 10.1 min. Linear calibration curves were generated by spiking drug-free mouse plasma […]
average correlation coefficient: > 0.999).

[9] = system: ABCC4; set-up: method as in PMID 12695538, PMID 10760098; conditions: in vitro ref 20, 21; read-out: IC50 for inhibition of substrate transport by ABCC4; cited from earlier work
[10] = Abcc1^(−/−) relative to wild-type mice ref 12, 13

Structure (SMILES): CN(C)C(=O)CCS[C@H](SCCC(=O)O)c1cccc(/C=C/c2ccc3ccc(Cl)cc3n2)c1 (single isomer, unassigned) [(R)-enantiomer of MK571]
Apparent tissue unbound fraction [1]: 0.18

Structure (SMILES): CN(C)C(=O)CCS[C@@H](SCCC(=O)O)c1cccc(/C=C/c2ccc3ccc(Cl)cc3n2)c1 (single isomer, unassigned) [(S)-enantiomer of MK571]
Apparent tissue unbound fraction [1]: 0.33

Second part, led by results:

kelimination,brain ([2]; vehicle-treated wild-type mice): 1.37 ± 0.27 h⁻¹ | kuptake,brain ([2]; vehicle-treated wild-type mice): 0.113 ± 0.028 ml/min/g brain | Extraction ratio, liver ([2]; vehicle-treated wild-type mice, assuming hepatic blood flow 1.0 ml/min/g tissue): 0.21 | Extraction ratio, kidneys ([2]; vehicle-treated wild-type mice, assuming renal blood flow 4.1 ml/min/g tissue): 0.18 | Plasma-to-blood ratio of radioactivity ([2]; wild-type mice, venous blood at end of PET scan): 1.46 ± 0.14 | Decrease in kelimination, brain [4]: 1.5 fold | Decrease in kelimination, kidneys [4]: 1.4 fold | Decrease in kurine [4]: 2.3 fold | Plasma-to-blood ratio of radioactivity ([6]; Abcc1^(−/−) mice, venous blood at end of PET scan): 0.60 ± 0.04 | Decrease in kurine ([6]; Abcc1^(−/−) vs wild-type mice): 3.4 fold | Decrease in plasma-to-blood ratio of radioactivity ([6]; Abcc1^(−/−) vs wild-type mice): 2.4 fold | Increase in blood AUC ([6]; Abcc1^(−/−) vs wild-type mice): 3.0 fold | Increase in kuptake, liver ([6]; Abcc1^(−/−) vs wild-type mice): 1.6 fold | Reduction in kelimination, blood ([6]; Abcc1^(−/−) vs wild-type mice): 3.6 fold | Reduction in kelimination, lungs ([6]; Abcc1^(−/−) vs wild-type mice): 5.7 fold | Reduction in kelimination,brain ([6]; Abcc1^(−/−) vs wild-type mice): 9.4 fold | Reduction in kelimination,brain ([6]; heterozygous Abcc1^(+/−) vs wild-type mice): 1.3 fold
Structure (SMILES): [11CH3]n1cnc2ncnc(Br)c21 [6-bromo-7-[^11C]methylpurine]
Reduction in kelimination of radioactivity, brain [3, 10]: 9.3 fold | Reduction in kelimination of radioactivity, lungs [3, 10]: 17.2 fold | Conversion into glutathione conjugate in brain and lungs ([3]; mice, within 15 min after i.v. injection ref 12, 13): almost quantitatively converted into its glutathione conjugate | Unchanged 6-bromo-7-[^11C]methylpurine in tissues and fluids ([5]; mouse, in vivo, 15 min): In none of the investigated tissues and fluids unchanged 6-bromo-7-[^11C]methylpurine could be detected

concentration at 120 min ([8]; C57BL/6J, kidney, Kidney unbound concentration of MK571, mice, from rat tissue unbound fraction of (R)-enantiomer): 98 µM | concentration at 120 min ([8]; C57BL/6J, kidney, Kidney unbound concentration of MK571, mice, from rat tissue unbound fraction of (S)-enantiomer): 180 µM | concentration at 120 min ([8]; C57BL/6J, kidney, Mean total MK571 concentration in the kidneys, wild-type mice, as restated in discussion): 544 µM | concentration at 120 min ([8]; kidney, MK571 concentration in kidneys, wild-type mice, approximately 120 min after 300 mg/kg i.p.): 544 ± 58 µM | concentration at 120 min ([8]; plasma, MK571 concentration in plasma, wild-type mice, approximately 120 min after 300 mg/kg i.p.): 251 ± 58 µM
Structure (SMILES): CN(C)C(=O)CCSC(SCCC(=O)O)c1cccc(/C=C/c2ccc3ccc(Cl)cc3n2)c1 (stereo not drawn) [MK571]
IC50 [7]: 4 µM | IC50 [9]: 10 µM

Percentage of S-(6-(7-[^11C]methylpurinyl))glutathione in bile ([5]; Abcc1^(−/−) mice): 79 ± 1% | Percentage of S-(6-(7-[^11C]methylpurinyl))glutathione in brain ([5]; Abcc1^(−/−) mice): 52 ± 0.4% | Percentage of S-(6-(7-[^11C]methylpurinyl))glutathione in kidney ([5]; Abcc1^(−/−) mice): 63 ± 1% | Percentage of S-(6-(7-[^11C]methylpurinyl))glutathione in liver ([5]; Abcc1^(−/−) mice): 32 ± 4% | Percentage of S-(6-(7-[^11C]methylpurinyl))glutathione in urine ([5]; Abcc1^(−/−) mice): 63 ± 3^a % | Percentage of S-(6-(7-[^11C]methylpurinyl))glutathione in plasma ([5]; Abcc1^(−/−) mice): 43 ± 2^a % | Percentage of S-(6-(7-[^11C]methylpurinyl))glutathione in bile ([5]; wild-type mice): 81 ± 5% | Percentage of S-(6-(7-[^11C]methylpurinyl))glutathione in brain ([5]; wild-type mice): 60 ± 8% | Percentage of S-(6-(7-[^11C]methylpurinyl))glutathione in kidney ([5]; wild-type mice): 58 ± 2% | Percentage of S-(6-(7-[^11C]methylpurinyl))glutathione in liver ([5]; wild-type mice): 37 ± 2% | Percentage of S-(6-(7-[^11C]methylpurinyl))glutathione in urine ([5]; wild-type mice): 77 ± 4% | Percentage of S-(6-(7-[^11C]methylpurinyl))glutathione in plasma ([5]; wild-type mice): 51 ± 2%
Structure (SMILES): Cn1cnc2ncnc(SC[C@H](NC(=O)CC[C@H](N)C(=O)O)C(=O)NCC(=O)O)c21 [S-(6-(7-[^11C]methylpurinyl))glutathione]
